Experimental data as given in patent EP0923292B1, “IMPROVED METHOD FOR SYSTEMIC ADMINISTRATION OF 2,4-DIENOIC ACID-TYPE INSECTICIDES TO TERRESTRIAL MAMMALS” (priority 1996, dated 1998).

Key:
C. felis = test: Systemic ovicidal activity upon oral administration (initial bolus plus daily diet) to host dogs (Example 3); type: in vivo, C. felis (host: dogs); details: eggs collected from the dogs, week 4
Description: Eleven days before the administration of the first gelatin capsule (i.e., on Day -11), and weekly thereafter through Day 59, each dog was infested with approximately 200 one-to two-week-old, unfed adult C. fells fleas of mixed sex ratio. Each dog was restrained for about one minute while the fleas were released along the dorsum.
Flea eggs were collected on Days -7, 0, 1, 2, 4, 7, and weekly thereafter through Day 63. Prior to egg collection, the cages in which the dogs were housed and the collection trays were rinsed with isopropyl alcohol, and the water was turned off, feed bowls and resting pads were removed from each cage. […] Using a dissecting microscope and a fine tipped artist brush, 100 flea eggs were counted from the sweepings of each dog and separated into four replicates of 25 eggs each. […] Seventy two hours after collection, larvae emergence was determined. Both dead and live larvae were counted to determine the ovicidal effect of the treatment. […]
Three days prior to the week 4 data point, each dog was infested with fleas in the manner described in Example 2. At week 4, flea eggs were collected from the dogs themselves in the manner described in Example 2, and the percent inhibition of egg hatch for the fleas collected in this manner was determined as in Example 2.

[1] = Concentration of (S)-methoprene in dog blood following oral administration (HPLC); type: in vivo, dogs; details: random-bred, whole blood, 50 mg/kg
Description: Twelve random-bred adult dogs of various sex and medium hair coat were selected based on hair coat, health, and individual habits. The twelve dogs were grouped into two groups of six dogs each. Dog weights ranged from 22.5 kg to 35.0 kg, and the various weights and each sex were represented in each group. The dogs received a measured amount of Science Diet maintenance dog food daily and water was available. The two groups of dogs were housed separately. The dogs of Group 1 were not given any treatments, whereas those of Group 2 were each given 50 mg/kg of technical (S)-methoprene one time only at the start of the study (Day 0).
Blood samples were taken periodically by drawing the samples into 10 cc disposable syringes and transferring them to labeled 5 mL heparinized EDTA vacutainers treated with […] of paraoxon solution at a concentration of 1 x 10^-2 M. The blood samples were frozen until ready for analysis. Hair samples were clipped from the dogs on the same days that blood samples were taken, then placed in labeled freezer jars with aluminum foil seals, and frozen.
To analyze the blood samples, the samples were extracted three times with methyl t-butyl ether, evaporated, reconstituted in 1 mL of methanol, and analyzed by HPLC as in the hair analyses.

[2] = (S)-Methoprene concentration in rat blood upon in vivo administration (radioassay/TLC); details: average of three animals

Structure (SMILES): COC(C)(C)CCC[C@H](C)C/C=C/C(C)=C/C(=O)OC(C)C [(S)-Methoprene, 1-isopropyl (E,E)-11-methoxy-3,7,11-trimethyl dodecadi-2,4-enoate]
- Percent Inhibition of Flea Egg Hatching (C. felis; initial bolus 25 mg/kg then daily diet 0.01% (S)-methoprene): 100%
- Percent Inhibition of Flea Egg Hatching (C. felis; initial bolus 50 mg/kg then daily diet 0.02% (S)-methoprene): 100%
- concentration at 1 day ([1]; Dog #60, oral 50 mg/kg one time on Day 0, day 1): 117 ng/g
- concentration at 3 day ([1]; Dog #60, oral 50 mg/kg one time on Day 0, day 3): 36 ng/g
- concentration at 1 day ([1]; Dog #98, oral 50 mg/kg one time on Day 0, day 1): 97.2 ng/g
- concentration at 1 day ([1]; Dog #528, oral 50 mg/kg one time on Day 0, day 1): 165 ng/g
- concentration at 3 day ([1]; Dog #528, oral 50 mg/kg one time on Day 0, day 3): 63.6 ng/g
- concentration at 1 day ([1]; Dog #529, oral 50 mg/kg one time on Day 0, day 1): 172 ng/g
- concentration at 3 day ([1]; Dog #529, oral 50 mg/kg one time on Day 0, day 3): 52.1 ng/g
- concentration at 7 day ([1]; Dog #529, oral 50 mg/kg one time on Day 0, day 7): 55.7 ng/g
- concentration at 1 day ([1]; Dog #534, oral 50 mg/kg one time on Day 0, day 1): 146 ng/g
- concentration at 3 day ([1]; Dog #534, oral 50 mg/kg one time on Day 0, day 3): 94.2 ng/g
- concentration at 5 day ([1]; Dog #534, oral 50 mg/kg one time on Day 0, day 5): 66.8 ng/g
- concentration at 1 day ([1]; Dog #535, oral 50 mg/kg one time on Day 0, day 1): 239 ng/g
- concentration at 3 day ([1]; Dog #535, oral 50 mg/kg one time on Day 0, day 3): 93.3 ng/g
- concentration at 5 day ([1]; Dog #535, oral 50 mg/kg one time on Day 0, day 5): 47.7 ng/g
- (S)-Methoprene Concentration in Blood ([2]; Group A 10 mg/kg I.V., 0.5 hours): 0.703 ± 0.307 ppm
- (S)-Methoprene Concentration in Blood ([2]; Group A 10 mg/kg I.V., 1 hour): 0.345 ± 0.107 ppm
- (S)-Methoprene Concentration in Blood ([2]; Group A 10 mg/kg I.V., 2 hours): 0.113 ± 0.028 ppm
- (S)-Methoprene Concentration in Blood ([2]; Group A 10 mg/kg I.V., 3 hours): 0.079 ± 0.002 ppm
- (S)-Methoprene Concentration in Blood ([2]; Group A 10 mg/kg I.V., 4 hours): 0.066 ± 0.028 ppm
- (S)-Methoprene Concentration in Blood ([2]; Group A 10 mg/kg I.V., 5 hours): 0.048 ± 0.001 ppm
- (S)-Methoprene Concentration in Blood ([2]; Group A 10 mg/kg I.V., 6 hours): 0.046 ± 0.027 ppm
- (S)-Methoprene Concentration in Blood ([2]; Group A 10 mg/kg I.V., 7 hours): 0.019 ± 0.008 ppm
- (S)-Methoprene Concentration in Blood ([2]; Group B 10 mg/kg oral, 1 hour): 0.112 ± 0.038 ppm
- (S)-Methoprene Concentration in Blood ([2]; Group B 10 mg/kg oral, 2 hours): 0.264 ± 0.122 ppm
- (S)-Methoprene Concentration in Blood ([2]; Group B 10 mg/kg oral, 3 hours): 0.202 ± 0.065 ppm
- (S)-Methoprene Concentration in Blood ([2]; Group B 10 mg/kg oral, 4 hours): 0.130 ± 0.066 ppm
- (S)-Methoprene Concentration in Blood ([2]; Group B 10 mg/kg oral, 5 hours): 0.052 ± 0.026 ppm
- (S)-Methoprene Concentration in Blood ([2]; Group B 10 mg/kg oral, 6 hours): 0.045 ± 0.014 ppm
- (S)-Methoprene Concentration in Blood ([2]; Group B 10 mg/kg oral, 7 hours): 0.020 ± 0.005 ppm
- (S)-Methoprene Concentration in Blood ([2]; Group B 10 mg/kg oral, 8 hours): 0.021 ± 0.009 ppm
- (S)-Methoprene Concentration in Blood ([2]; Group C 100 mg/kg oral, 1 hour): 0.165 ± 0.070 ppm
- (S)-Methoprene Concentration in Blood ([2]; Group C 100 mg/kg oral, 2 hours): 3.487 ± 1.324 ppm
- (S)-Methoprene Concentration in Blood ([2]; Group C 100 mg/kg oral, 3 hours): 1.302 ± 0.409 ppm
- (S)-Methoprene Concentration in Blood ([2]; Group C 100 mg/kg oral, 4 hours): 1.504 ± 0.533 ppm
- (S)-Methoprene Concentration in Blood ([2]; Group C 100 mg/kg oral, 5 hours): 0.930 ± 0.449 ppm
- (S)-Methoprene Concentration in Blood ([2]; Group C 100 mg/kg oral, 6 hours): 0.527 ± 0.341 ppm
- (S)-Methoprene Concentration in Blood ([2]; Group C 100 mg/kg oral, 7 hours): 0.608 ± 0.292 ppm
- (S)-Methoprene Concentration in Blood ([2]; Group C 100 mg/kg oral, 8 hours): 0.483 ± 0.221 ppm
